{"source": "patent US20130046257A1", "about": "“METHODS OF USING AGENTS THAT MODULATE CLAUDIN EXPRESSION” (priority 2010, published 2013)", "molecules": {"B1": {"name": "IL-4: human IL-4 (R&D system), Th2 cytokine (protein, UniProt P05112 25-153, looked up)", "Interleukin-4": "HKCDITLQEIIKTLNSLTEQKTLCTELTVTDIFAASKNTTEKETFCRAATVLRQFYSHHEKDTRCLGATAQQFHRHKQLIRFLKRLDRNLWGLAGLNSCPVKEANQSTLENFLERLKTIMREKYSKCSS"}}, "key": {"[1]": {"tested_on": "CLDN1 mRNA", "test": "qPCR of CLDN1 in PHK treated with ciglitazone", "type": "cell-based, human", "conditions": "CIG 5 μM, 24 h, PHK in high Calcium media (DMEM)", "protocol": "(§1) PHK were differentiated in high Calcium media (DMEM) in the presence of CIG 5 μM in DMSO or media with equivalent amount of DMSO alone, for 24 h. Total RNA was extracted from PHK using the QlAshredder spin column (Qiagen) and RNeasy RNA isolation kits (Qiagen). The quality of total RNA samples (RNA Integrity Number, RIN) was assessed using an Agilent 2100 Bioanalyzer (Agilent Technologies, Palo Alto, Calif.).\n(§2) qPCR was performed using the iScript™ cDNA Synthesis kit and iQ™ SYBER Green Supermix assay system (Bio-Rad Laboratories). All PCR amplifications were carried out in triplicate on an iQ5 Multicolor real-time PCR detection system (Bio-Rad). Primers were designed and synthesized by Integrated DNA Technologies. Relative gene expression was calculated by using the 2^−ΔΔCt method, as previously described. The normalized Ct value of each sample was calculated using GAPDH as an endogenous control gene."}, "[2]": {"tested_on": "occludin mRNA", "test": "qPCR of occludin in PHK treated with ciglitazone", "type": "cell-based, human", "conditions": "CIG 5 μM, 24 h, PHK in high Calcium media (DMEM)", "protocol": "as §1, §2"}, "[3]": {"tested_on": "human epidermis sheet", "test": "TEER of human epidermal sheets treated with sodium decanoate", "type": "cell-based", "conditions": "1 mM, T0", "text": "Epidermal sheets were obtained from discarded human skin using a weck blade (0.08 inch). Epidermal samples were mounted in an adapted snap-well system (Pierro et al., “Zonula Occludens Toxin Structure-Function Analysis, Identification of the Fragment Biologically Active on Tight Junctions and of the Zonulin Receptor Binding Domain,” J. Biol."}, "[4]": {"tested_on": "human cultured keratinocytes and reconstructed human epidermis", "conditions": "Kurasawa et al. 2009; cited from earlier work"}, "[5]": {"tested_on": "primary human keratinocytes (PHK)", "test": "Trans Epithelial Electric Resistance (TEER) of PHK", "type": "cell-based", "protocol": "Human keratinocytes were isolated from neonatal foreskin. Poumay et al., “Basal Detachment of the Epidermis Using Dispase: Tissue Spatial Organization and Fate of Integrin Alpha 6 Beta 4 and Hemidesmosomes,” J. Invest. Dermatol. 102:111-7 (1994), which is hereby incorporated by reference in its entirety. PHK were cultured in Keratinocyte-SFM (Invitrogen/Gibco) with 1% Pen/Strep, 0.2% Amphotericin B (Invitrogen/Gibco). To differentiate PHK, cells were grown in DMEM (Invitrogen/Gibco) with 10% heat-inactivated fetal bovine serum (Invitrogen/Gibco) and 1% Pen/Strep, 0.2% Amphotericin B (Invitrogen/Gibco). For TJ modulation experiments, the following cytokines were added alone or in combination to the differentiation media; human IL-4 (50 ng/ml; R&D system) and IL-13 (50 ng/ml; R&D system).\nPHK were plated at a subconfluent density of 2.5−3×10^4 cells/filter in Transwell insert and cultured in Keratinocyte-SFM media until confluent. TEER was measured using an EVOMX voltohmmeter (World Precision Instruments, Sarasota, Fla.). The resistance of cell-free filters was subtracted from each experimental value.\nPHK were plated on glass coverslips at 2-3×10^5 cells/well in a 6-well plate or at 2-3×10^4 cells/filter in Transwell insert (Costar; PET membrane, 0.4 μm pore size, 6.5 mm insert) in Keratinocyte-SFM without antibiotics. The next day after plating, cells were transfected with claudin-1 specific or control (scrambled) siRNAs (Santa Cruz) using Lipofectamine™ 2000 transfection Reagent (Invitrogen). TEER and permeability experiments were conducted 48 hours after PHK were switched to differentiation media.\nTEER was measured in PHK as described above. PHK were stimulated with S. aureus-derived peptidoglycan (PGN, 0.2-20 μg/ml, n=3-7) (FIG. 19A), Malp-2 (10-1000 ng/ml, n=3) (FIG. 19B), and Pam3CSK4 a TLR1/2 ligand (0.01-20 μg/ml, n=3-6) (FIG. 19C). Data are presented by analyzing the area under the TEER curve and normalized to the mean values for the control group (media alone)*p<0.05; **p<0.01."}, "[6]": {"tested_on": "claudin-1", "sequence (O95832 whole entry)": "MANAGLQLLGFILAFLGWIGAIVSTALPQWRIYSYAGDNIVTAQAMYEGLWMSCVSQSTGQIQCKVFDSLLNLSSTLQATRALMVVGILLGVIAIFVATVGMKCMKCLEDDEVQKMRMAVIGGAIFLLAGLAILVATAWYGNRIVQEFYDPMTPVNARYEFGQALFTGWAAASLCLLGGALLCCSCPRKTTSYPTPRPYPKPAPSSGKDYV", "test": "Western blot of claudin-1 in PHK differentiated with Th2 cytokines", "type": "cell-based, human", "conditions": "48 hours, 50 ng/ml, n=3", "protocol": "(§3) Human keratinocytes were isolated from neonatal foreskin. Poumay et al., “Basal Detachment of the Epidermis Using Dispase: Tissue Spatial Organization and Fate of Integrin Alpha 6 Beta 4 and Hemidesmosomes,” J. Invest. Dermatol. 102:111-7 (1994), which is hereby incorporated by reference in its entirety. PHK were cultured in Keratinocyte-SFM (Invitrogen/Gibco) with 1% Pen/Strep, 0.2% Amphotericin B (Invitrogen/Gibco). To differentiate PHK, cells were grown in DMEM (Invitrogen/Gibco) with 10% heat-inactivated fetal bovine serum (Invitrogen/Gibco) and 1% Pen/Strep, 0.2% Amphotericin B (Invitrogen/Gibco). For TJ modulation experiments, the following cytokines were added alone or in combination to the differentiation media; human IL-4 (50 ng/ml; R&D system) and IL-13 (50 ng/ml; R&D system). […]\n(§4) Previous studies have shown that claudin-1 expression in noncutaneous epithelial cells can be modulated by cytokines and growth factors. […] To test this possibility, PHK were differentiated in the presence or absence of Th2 cytokines, IL-4 and IL-13, and the expression of claudin-1, occludin and ZO-1 was evaluated. […]"}, "[7]": {"tested_on": "occludin and ZO-1", "test": "Expression of occludin and ZO-1 in PHK differentiated with Th2 cytokines", "type": "cell-based, human", "conditions": "PHK differentiated with cytokine", "protocol": "as §3, §4"}, "[8]": {"tested_on": "CLDN1, occludin, ZO-1 and CLDN23", "test": "Western blot of TJ proteins in PHK treated with PGN or TLR2 ligands", "type": "cell-based, human", "conditions": "48 hr; PGN 0.2-20 μg/ml, Pam3CSK4 0.1-20 μg/ml, MALP2 10-1000 ng/ml", "protocol": "PHFK were treated with PGN (0, 0.2, 2, 20 μg/ml) (as shown in FIG. 21A), Pam3CSK4 (0, 0.1, 1, 20 μg/ml) (as shown in FIG. 21B), MALP2 (0, 10, 100, 1000 ng/ml) for 48 hr and CLDN1 (as shown in FIG. 21C), occludin, ZO-1 and CLDN23 protein levels were detected from whole cell lysates by Western blot. Quantitative protein expression was determined by densitometry of bands and normalization to the housekeeping protein ([…]). (Representative blot of n=2-3 experiments)."}}, "data": [{"molecule": "CC1(COc2ccc(CC3SC(=O)NC3=O)cc2)CCCCC1", "note": "(stereo not shown) [ciglitazone]", "values": [{"measurement": "CLDN1 mRNA, fold over DMSO alone", "setting": "[1]", "result": 1.7, "unit": "fold"}, {"measurement": "occludin mRNA, fold", "setting": "[2]", "result": 2.0, "unit": "fold"}, {"measurement": "occludin mRNA, fold", "setting": "[2]; listed as CIG", "result": 2, "unit": "fold"}]}, {"molecule": "CCCCCCCCCC(=O)[O-].[Na+]", "note": "[sodium decanoate]", "values": [{"measurement": "TEER, dmem + SC_1", "setting": "[3]", "result": 1.00}, {"measurement": "TEER, dmem + SC_2", "setting": "[3]", "result": 1.00}, {"measurement": "TEER, mean SC", "setting": "[3]", "result": 1.00}, {"measurement": "paracellular permeability", "setting": "[4]", "result": "increased paracellular permeability"}, {"measurement": "transepithelial electrical resistance", "setting": "[4]", "result": "decreased transepithelial electrical resistance"}]}, {"molecule": "IL-13: IL-13 (R&D system), Th2 cytokine", "values": [{"measurement": "effect on TEER in dose response experiments", "setting": "[5]; 0.5-100 ng/ml, PHK", "result": "slight increase in TEER"}, {"measurement": "claudin-1 expression, fold over control", "setting": "[6]", "result": "1.6±0.3", "unit": "fold"}, {"measurement": "effect on expression of occludin and ZO-1", "setting": "[7]", "result": "no effect"}]}, {"molecule": "Malp-2 [reference compound]", "values": [{"measurement": "tight junction function (area under the TEER curve normalized to media alone)", "setting": "[5]; PGN 0.2-20 μg/ml, Malp-2 10-1000 ng/ml, Pam3CSK4 0.01-20 μg/ml", "result": "increase tight junction function"}, {"measurement": "TJ protein expressions", "setting": "[8]", "result": "increase TJ protein expressions"}]}, {"molecule": "Pam3CSK4", "values": [{"measurement": "TJ protein expressions", "setting": "[8]", "result": "increase TJ protein expressions"}]}, {"molecule": "B1", "values": [{"measurement": "claudin-1 expression, fold over control", "setting": "[6]", "result": "2.1±0.4", "unit": "fold"}, {"measurement": "effect on expression of occludin and ZO-1", "setting": "[7]", "result": "no effect"}]}]}
